Laboratory results from ChEMBL document CHEMBL4265986, “Structural exploration of cinnamate-based phosphonic acids as inhibitors of bacterial ureases” (Eur J Med Chem, 2018).

How the values were obtained:
[1] = Inhibition of Sporosarcina pasteurii CCM 2056 urease using urea as substrate preincubated for 2 hrs by indophenol blue detection based phenol-hypochlorite method
[2] = Inhibition of Sporosarcina pasteurii CCM 2056 urease using urea as substrate after 10 mins by indophenol blue detection based phenol-hypochlorite method
[3] = Mixed type inhibition of Sporosarcina pasteurii CCM 2056 urease using urea as substrate preincubated for 2 hrs by indophenol blue detection based phenol-hypochlorite method
Proteus mirabilis = assay: Antimicrobial activity against Proteus mirabilis PCM543 assessed as inhibition of microbial proliferation preincubated for 2 hrs by MTT assay; assay type: functional
[4] = Inhibition of Proteus mirabilis PCM543 urease using urea as substrate preincubated for 2 hrs by indophenol blue detection based phenol-hypochlorite method
Sporosarcina pasteurii [5] = assay: Slow binding inhibition of Sporosarcina pasteurii CCM 2056 urease assessed as residence time using urea as substrate after 120 mins by indophenol blue detection based phenol-hypochlorite method
Sporosarcina pasteurii [6] = assay: Slow binding inhibition of Sporosarcina pasteurii CCM 2056 urease assessed as dissociation rate constant using urea as substrate after 120 mins by indophenol blue detection based phenol-hypochlorite method

SMILES | IC50 [1] [µM] | IC50 [2] [µM] | Ki [3] [µM] | LC50 (Proteus mirabilis) [µM] | IC50 [4] [µM] | TIME (Sporosarcina pasteurii [5]) [h] | K (Sporosarcina pasteurii [6]) [s⁻¹]
O=C(O)/C(=C/c1ccc(Cl)cc1)CCCP(=O)(O)O | 1.62 | 2.49 | 1.43 | 122 | 18.6 |  | 
COc1ccc(/C=C(\CCCCP(=O)(O)O)C(=O)O)cc1 | 14.5 | 16.6 | 9.31 | 28.6 | 114 |  | 
COC(=O)/C(=C/c1ccc(OC)cc1)CCCP(=O)(O)O | 10.8 | 35.3 | 6.04 | 236 | 75.1 | 0.114 | 0.00244
O=C(O)/C(=C/c1ccc(Cl)cc1)CCCCP(=O)(O)O | 2.34 | 5.83 | 1.75 | 435 | 22.2 |  | 
COC(=O)/C(=C/c1ccc(F)cc1)CCCP(=O)(O)O | 105 | 221 | 87.2 | 215 | 735 |  | 
COC(=O)/C(=C/c1ccccc1)CCCCP(=O)(O)O | 54 | 55 | 50.5 | 469 | 476 |  | 
O=C(O)/C(=C/c1ccc(F)cc1)CCCP(=O)(O)O | 3.82 | 4.9 | 1.8 | 121 | 38 |  | 
O=C(O)/C(=C/c1ccccc1)CCCCP(=O)(O)O | 3.83 | 4.89 | 3.51 | 97.6 | 32.6 |  | 
O=C(O)/C(=C/c1ccc(F)cc1)CCCCP(=O)(O)O | 2.91 | 9.98 | 2.58 | 192 | 14.1 | 0.206 | 0.00135
COC(=O)/C(=C/c1ccc(C)cc1)CCCP(=O)(O)O | 248 | 265 | 227 | 292 | 1430 |  | 
COC(=O)/C(=C/c1ccc(Cl)cc1)CCCP(=O)(O)O | 49.8 | 109 | 42.5 | 89.6 | 521 |  | 
COC(=O)/C(=C/c1ccc(Cl)cc1)CCCCP(=O)(O)O | 6.35 | 58.3 | 4.71 | 638 | 27.4 | 0.135 | 0.00206
COc1ccc(/C=C(\CCCP(=O)(O)O)C(=O)O)cc1 | 4.98 | 10 | 3.4 | 65.2 | 39.7 |  | 
COC(=O)/C(=C/c1ccc(OC)cc1)CCCCP(=O)(O)O | 22.6 | 24.5 | 21.4 | 160 | 162 |  | 
COC(=O)/C(=C/c1ccc(C)cc1)CCCCP(=O)(O)O | 261 | 294 | 219 | 659 | 1550 |  | 
O=C(O)/C(=C/c1ccccc1)CCCP(=O)(O)O | 0.743 | 3.1 | 0.509 | 135 | 11 | 0.407 | 0.000682
Cc1ccc(/C=C(\CCCP(=O)(O)O)C(=O)O)cc1 | 24.6 | 30 | 19.4 | 139 | 156 |  | 
Cc1ccc(/C=C(\CCCCP(=O)(O)O)C(=O)O)cc1 | 8.53 | 9.24 | 7.21 | 49.8 | 52.6 |  | 
COC(=O)/C(=C/c1ccccc1)CCCP(=O)(O)O | 328 | 449 | 289 | 556 | 1590 |  | 
COC(=O)/C(=C/c1ccc(F)cc1)CCCCP(=O)(O)O | 130 | 164 | 116 | 1060 | 630 |  | 
